Data published in PubChem BioAssay (NCI).
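Five concentrations, 48 hours, 96-well plates. TGI: concentration producing complete growth inhibition.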

Columns and labels:
Test in all cases: NCI-60 cell line screen, 48 h
786-0 renal = test system: 786-0 renal
A498 renal = test system: A498 renal
A549 NSCLC = test system: A549 NSCLC
ACHN renal = test system: ACHN renal
CAKI-1 renal = test system: CAKI-1 renal
COLO 205 colon = test system: COLO 205 colon
DLD-1 colon = test system: DLD-1 colon
DMS 114 small cell lung = test system: DMS 114 small cell lung
DMS 273 small cell lung = test system: DMS 273 small cell lung
EKVX NSCLC = test system: EKVX NSCLC
HCC-2998 colon = test system: HCC-2998 colon
HCT-116 colon = test system: HCT-116 colon
HCT-15 colon = test system: HCT-15 colon
HOP-18 NSCLC = test system: HOP-18 NSCLC
HOP-62 NSCLC = test system: HOP-62 NSCLC
HOP-92 NSCLC = test system: HOP-92 NSCLC
HT29 colon = test system: HT29 colon
IGROV1 ovarian = test system: IGROV1 ovarian
KM20L2 colon = test system: KM20L2 colon
LOX IMVI melanoma = test system: LOX IMVI melanoma
LXFL 529 NSCLC = test system: LXFL 529 NSCLC
M14 melanoma = test system: M14 melanoma
M19-MEL melanoma = test system: M19-MEL melanoma
MALME-3M melanoma = test system: MALME-3M melanoma
MOLT-4 leukemia = test system: MOLT-4 leukemia
NCI-H226 lung = test system: NCI-H226 lung
NCI-H460 lung = test system: NCI-H460 lung
NCI-H522 lung = test system: NCI-H522 lung
OVCAR-3 ovarian = test system: OVCAR-3 ovarian
OVCAR-5 ovarian = test system: OVCAR-5 ovarian
OVCAR-8 ovarian = test system: OVCAR-8 ovarian
RPMI-8226 leukemia = test system: RPMI-8226 leukemia
RXF 393 renal = test system: RXF 393 renal
SF-268 CNS = test system: SF-268 CNS
SF-295 CNS = test system: SF-295 CNS
SF-539 CNS = test system: SF-539 CNS
SK-MEL-2 melanoma = test system: SK-MEL-2 melanoma
SK-MEL-28 melanoma = test system: SK-MEL-28 melanoma
SK-MEL-5 melanoma = test system: SK-MEL-5 melanoma
SK-OV-3 ovarian = test system: SK-OV-3 ovarian
SN12C renal = test system: SN12C renal
SNB-75 CNS = test system: SNB-75 CNS
SNB-78 CNS = test system: SNB-78 CNS
SR leukemia = test system: SR leukemia
SW-620 colon = test system: SW-620 colon
TK-10 renal = test system: TK-10 renal
U251 CNS = test system: U251 CNS
UACC-62 melanoma = test system: UACC-62 melanoma
UO-31 renal = test system: UO-31 renal

CCOC(=O)c1c(-c2[nH]c(C(=O)OCc3ccccc3)c(C)c2C(=O)OCC)[nH]c(C(=O)OCc2ccccc2)c1C
TGI (786-0 renal): > 100 µM
TGI (A498 renal): > 100 µM
TGI (A549 NSCLC): > 100 µM
TGI (ACHN renal): > 100 µM
TGI (CAKI-1 renal): > 100 µM
TGI (COLO 205 colon): > 100 µM
TGI (DLD-1 colon): > 100 µM
TGI (DMS 114 small cell lung): > 100 µM
TGI (DMS 273 small cell lung): > 100 µM
TGI (EKVX NSCLC): > 100 µM
TGI (HCC-2998 colon): > 100 µM
TGI (HCT-116 colon): > 100 µM
TGI (HCT-15 colon): > 100 µM
TGI (HOP-18 NSCLC): > 100 µM
TGI (HOP-62 NSCLC): > 100 µM
TGI (HOP-92 NSCLC): > 100 µM
TGI (HT29 colon): > 100 µM
TGI (IGROV1 ovarian): > 100 µM
TGI (KM20L2 colon): > 100 µM
TGI (LOX IMVI melanoma): > 100 µM
TGI (LXFL 529 NSCLC): > 100 µM
TGI (M14 melanoma): > 100 µM
TGI (M19-MEL melanoma): > 100 µM
TGI (MALME-3M melanoma): > 100 µM
TGI (MOLT-4 leukemia): > 100 µM
TGI (NCI-H226 lung): > 100 µM
TGI (NCI-H460 lung): > 100 µM
TGI (NCI-H522 lung): > 100 µM
TGI (OVCAR-3 ovarian): > 100 µM
TGI (OVCAR-5 ovarian): > 100 µM
TGI (OVCAR-8 ovarian): > 100 µM
TGI (RPMI-8226 leukemia): > 100 µM
TGI (RXF 393 renal): 86.2 µM
TGI (SF-268 CNS): > 100 µM
TGI (SF-295 CNS): > 100 µM
TGI (SF-539 CNS): > 100 µM
TGI (SK-MEL-2 melanoma): > 100 µM
TGI (SK-MEL-28 melanoma): > 100 µM
TGI (SK-MEL-5 melanoma): > 100 µM
TGI (SK-OV-3 ovarian): > 100 µM
TGI (SN12C renal): > 100 µM
TGI (SNB-75 CNS): 77.2 µM
TGI (SNB-78 CNS): > 100 µM
TGI (SR leukemia): > 100 µM
TGI (SW-620 colon): > 100 µM
TGI (TK-10 renal): > 100 µM
TGI (U251 CNS): > 100 µM
TGI (UACC-62 melanoma): > 100 µM
TGI (UO-31 renal): > 100 µM
